# Reference: patent publication US20130204033A1, “ANTIPROLIFERATIVE COMPOUNDS, CONJUGATES THEREOF, METHODS THEREFOR, AND USES THEREOF” (Medarex, Inc., priority 2009, published 2013)
# Where two headings read alike, the source gives them in different places.
# Key:
# Assay type in all cases: cell-based, human
# [1] = system: Raji; experiment: 3H thymidine proliferation assay, Raji
# How it was run: (§1)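 Seeding: 1.0×10^4 cells/well, 3 h. Dosing: 1:3 serial dilutions, 72 h. Label: ^3H-thymidine 1.0 μCi/well for last 24 h, scintillation read; EC50 = 50% proliferation reduction.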
# [2] = system: HPAC; experiment: 3H thymidine proliferation assay, HPAC
# How it was run: as §1
# [3] = system: HPAC; experiment: ATP luminescence proliferation assay, HPAC
# Method: (§2) This example generally describes the procedures used to assay the antiproliferative activity of compounds of this invention or their conjugates. Human tumor cell lines were obtained from the American Type Culture Collection (ATCC), P.O. Box 1549, Manassas, Va. 20108, USA, and cultured according to instruction from the ATCC. Cells were seeded at 1.0×10^3 or 1.0×10^4 cells/well in 96-well plates for 3 h for ATP assays or ^3H thymidine assays, respectively. 1:3 serial dilutions of free (unconjugated) compounds or their conjugates were added to the wells. Plates were allowed to incubate for 24 to 72 h. The ^3H thymidine plates were pulsed with 1.0 μCi of ^3H-thymidine per well for the last 24 hours of the total incubation period, harvested, and read on a Top Count Scintillation Counter (Packard Instruments, Meriden, Conn.). ATP levels in the ATP plates were measured using the […]-GLO® Luminescent Cell Viability kit following the manufacturer's manual and read on a GLOMAX® 20/20 luminometer (both from Promega, Madison, Wis., USA). The EC50 values—the concentration at which an agent inhibits or reduces cell proliferation by 50% —were determined using PRISM™ software, version 4.0 (GraphPad Software, La Jolla, Calif., USA).
# (§3) Using the ^3H thymidine or the ATP luminescence assay, or both, the activities of compounds of this invention were assayed against the following cancer cell lines: HCT-15 (colorectal cancer, multi-drug resistant (MDR)); Hep3B (liver cancer); LNCaP (prostate cancer, androgen receptor positive (AR^+)); MDA-MB-231 (breast cancer, estrogen receptor, progesterone receptor, and Her2 negative (triple negative)); A2058 (melanoma); U-87 MG (glioblastoma); NCI-H460 (NSCLC); A549 (NSCLC); HPAC (pancreatic cancer, primary); PC3 (prostate cancer, AR); BT474 (breast cancer, Her2 highly positive (Her2hi)); SKOV3 (ovarian cancer, Her2hi); 786-O (renal cancer); UO-31 (renal cancer, MDR); NCI-H740 (SCLC); DMS53 (SCLC); SK-BR3 (breast cancer, Her2hi); ZR-75 (breast cancer, estrogen receptor positive); OVCAR3 (ovarian cancer); HL-60 (APL); OVCAR8/Adr (ovarian cancer, MDR); CEM-Cl (ALL); Nomo-1 (AML); RPMI-8226 (MM)); Raji (lymphoma); SW-480 (colorectal cancer, metastatic); SW-620 (colorectal cancer); and H226 (lung cancer). (Not all compounds were assayed against all cell lines.)
# (§4) Table 3 provides the data for the ATP luminescence proliferation assays, with an incubation period of 48, 72, or 96 h, as noted.
# [4] = system: ZR-75; experiment: ATP luminescence proliferation assay, ZR-75
# Method: as §2, §3, §4
# [5] = system: SK-BR3; experiment: 3H thymidine proliferation assay, SK-BR3; details: 3H thymidine method, 72 h incubation
# How it was run: as §1
# [6] = system: 786-O; experiment: 3H thymidine proliferation assay, 786-O
# How it was run: as §1
# [7] = system: OVCAR3; experiment: 3H thymidine proliferation assay, OVCAR3
# How it was run: as §1
# [8] = system: UO-31; experiment: 3H thymidine proliferation assay, UO-31
# How it was run: as §1
# [9] = system: MDA-MB-231; experiment: ATP luminescence proliferation assay, MDA-MB-231
# Method: as §2, §3, §4
# [10] = system: HCT-15; experiment: ATP luminescence proliferation assay, HCT-15
# How it was run: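 Cells seeded at 1.0×10^3 cells/well for 3 h, then exposed to 1:3 serial dilutions of free compounds or conjugates for 48, 72 or 96 h as noted. ATP measured by Glo luminescent viability kit; EC50 taken as concentration reducing proliferation by 50%.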
# [11] = system: U-87 MG; experiment: 3H thymidine proliferation assay, U-87 MG
# How it was run: as §1
# [12] = system: U-87 MG; experiment: ATP luminescence proliferation assay, U-87 MG
# Method: as §2, §3, §4
# [13] = system: Raji; experiment: ATP luminescence proliferation assay, Raji
# Method: as §2, §3, §4
# [14] = system: LNCaP; experiment: 3H thymidine proliferation assay, LNCaP
# How it was run: as §1
# [15] = system: SK-BR3; experiment: ATP luminescence proliferation assay, SK-BR3
# Method: as §2, §3, §4
# [16] = system: DMS53; experiment: ATP luminescence proliferation assay, DMS53
# Method: as §2, §3, §4
# [17] = system: A2058; experiment: 3H thymidine proliferation assay, A2058; details: 3H thymidine method, 72 h incubation
# How it was run: as §1
# [18] = system: HL-60; experiment: 3H thymidine proliferation assay, HL-60
# How it was run: as §1
# [19] = system: RPMI-8226; experiment: 3H thymidine proliferation assay, RPMI-8226
# How it was run: as §1
# [20] = system: BT474; experiment: 3H thymidine proliferation assay, BT474
# How it was run: as §1
# [21] = Homo sapiens, Raji, read-out: EC50, Raji, 3H thymidine method, 72 h incubation
# [22] = Homo sapiens, HPAC, read-out: EC50, HPAC, 3H thymidine method, 72 h incubation
# [23] = Homo sapiens, 72 h, read-out: EC50 HPAC (72 h), ATP luminescence, HPAC, 72 h incubation
# [24] = Homo sapiens, ZR75, 48 h, read-out: EC50 ZR-75 (48 h), ATP luminescence, ZR-75, 48 h incubation
# [25] = Homo sapiens, 786-0, read-out: EC50, 786-O, 3H thymidine method, 72 h incubation
# [26] = Homo sapiens, OVCAR-3, read-out: EC50, OVCAR3, 3H thymidine method, 72 h incubation
# [27] = Homo sapiens, UO-31, read-out: EC50, UO-31, 3H thymidine method, 72 h incubation
# [28] = Homo sapiens, U-87 MG, read-out: EC50, U-87 MG, 3H thymidine method, 72 h incubation
# [29] = Homo sapiens, 72 h, read-out: EC50 U-87 MG (72 h), ATP luminescence, U-87 MG, 72 h incubation
# [30] = Homo sapiens, 72 h, read-out: EC50 Raji (72 h), ATP luminescence, Raji, 72 h incubation
# [31] = Homo sapiens, LNCaP, read-out: EC50, LNCaP, 3H thymidine method, 72 h incubation
# [32] = Homo sapiens, SK-BR-3, 48 h, read-out: EC50 SK-BR3 (48 h), ATP luminescence, SK-BR3, 48 h incubation
# [33] = Homo sapiens, HL-60, read-out: EC50, HL-60, 3H thymidine method, 72 h incubation
# [34] = Homo sapiens, RPMI-8226, read-out: EC50, RPMI-8226, 3H thymidine method, 72 h incubation
# [35] = Homo sapiens, BT-474, read-out: EC50, BT474, 3H thymidine method, 72 h incubation
SMILES,"EC50 [1, 21]","EC50 [2, 22]","EC50 [3, 23]","EC50 [4, 24]","EC50 ([5]; Homo sapiens, SK-BR-3)","EC50 [6, 25]","EC50 [7, 26]","EC50 [8, 27]","EC50 [11, 28]","EC50 [12, 29]","EC50 [13, 30]","EC50 [14, 31]","EC50 [15, 32]","EC50 ([17]; Homo sapiens, A2058)","EC50 [18, 33]","EC50 [19, 34]","EC50 [20, 35]",also measured
CC[C@H](C)[C@H](NC(=O)[C@H]1CCCCN1C)C(=O)N(COC(=O)CC(C)C)[C@H](C[C@@H](OC(C)=O)c1nc(C(=O)N[C@@H](Cc2ccc(N)cc2)CC(C)C(=O)O)cs1)C(C)C (stereo partly drawn) [Compound 54],0.2 nM,0.83 nM,0.96 nM,9.6 nM,1.1 nM,6.9 nM,3.9 nM,1.3 nM,0.11 nM,1.6 nM,1.2 nM,16 nM,6.2 nM,0.64 nM,0.53 nM,0.36 nM,8.8 nM,"EC50 ([9]; Homo sapiens, MDA-MB-231, 72 h, read-out: EC50 MDA-MB-231 (72 h), ATP luminescence, MDA-MB-231, 72 h incubation): 5.6 nM; EC50 ([10]; Homo sapiens, HCT-15, 72 h, read-out: EC50 HCT-15 (72 h), ATP luminescence, HCT-15, 72 h incubation): 2.6 nM; EC50 ([16]; Homo sapiens, DMS-53, 48 h, read-out: EC50 DMS53 (48 h), ATP luminescence, DMS53, 48 h incubation): 7.9 nM"
CC[C@H](C)[C@H](NC(=O)[C@H]1CCCCN1C)C(=O)N(COC(=O)CC(C)C)[C@H](C[C@@H](O)c1nc(C(=O)N[C@@H](Cc2ccccc2)C(=O)OC)cs1)C(C)C [Compound 28],,,,,,,,,,,,,,,,,,"EC50 ([1]; 3H thymidine method, 72 h incubation, read-out: EC50, Raji): 13 nM; EC50 ([2]; 3H thymidine method, 72 h incubation, read-out: EC50, HPAC): 34 nM; EC50 ([3]; ATP luminescence, 72 h incubation, read-out: EC50 HPAC (72 h)): 5.9 nM; EC50 ([4]; ATP luminescence, ZR-75, 48 h incubation, read-out: EC50 ZR-75 (48 h)): 16 nM; EC50 [5]: > 100 nM; EC50 ([6]; 3H thymidine method, 72 h incubation, read-out: EC50, 786-O): 61 nM; EC50 ([7]; 3H thymidine method, 72 h incubation, read-out: EC50, OVCAR3): 3.1 nM; EC50 ([8]; 3H thymidine method, 72 h incubation, read-out: EC50, UO-31): > 100 nM; EC50 ([9]; ATP luminescence, MDA-MB-231, 72 h incubation, read-out: EC50 MDA-MB-231 (72 h)): 16 nM; EC50 ([10]; ATP luminescence, HCT-15, 72 h incubation, read-out: EC50 HCT-15 (72 h)): 132 nM; EC50 ([11]; 3H thymidine method, 72 h incubation, read-out: EC50, U-87 MG): > 100 nM; EC50 ([12]; ATP luminescence, 72 h incubation, read-out: EC50 U-87 MG (72 h)): 18 nM; EC50 ([13]; ATP luminescence, 72 h incubation, read-out: EC50 Raji (72 h)): 15 nM; EC50 ([14]; 3H thymidine method, 72 h incubation, read-out: EC50, LNCaP): 64 nM; EC50 ([15]; ATP luminescence, SK-BR3, 48 h incubation, read-out: EC50 SK-BR3 (48 h)): 7.8 nM; EC50 ([16]; ATP luminescence, DMS53, 72 h incubation, read-out: EC50 DMS53 (72 h)): 58 nM; EC50 [17]: 0.96 nM; EC50 ([18]; 3H thymidine method, 72 h incubation, read-out: EC50, HL-60): 7.7 nM; EC50 ([19]; 3H thymidine method, 72 h incubation, read-out: EC50, RPMI-8226): 8.7 nM; EC50 ([20]; 3H thymidine method, 72 h incubation, read-out: EC50, BT474): > 100 nM"
CC[C@H](C)[C@H](NC(=O)[C@H]1CCCCN1C)C(=O)N(C)[C@H](C[C@@H](OC)c1nc(C(=O)N[C@H](CCC(=O)OC)Cc2ccccc2)cs1)C(C)C [Compound 26],7 nM,11 nM,279 nM,208 nM,32 nM,26 nM,3.2 nM,50 nM,5.2 nM,94 nM,46 nM,> 3000 nM,253 nM,25 nM,0.45 nM,7.7 nM,11 nM,"EC50 ([9]; Homo sapiens, MDA-MB-231, 48 h, read-out: EC50 MDA-MB-231 (48 h), ATP luminescence, MDA-MB-231, 48 h incubation): 120 nM; EC50 ([10]; Homo sapiens, HCT-15, 48 h, read-out: EC50 HCT-15 (48 h), ATP luminescence, HCT-15, 48 h incubation): 113 nM; EC50 ([16]; Homo sapiens, DMS-53, 72 h, read-out: EC50 DMS53 (72 h), ATP luminescence, DMS53, 72 h incubation): 193 nM"
